Data reported in patent US20220330549A1, “USE OF N-BENZYLBENZAMIDE-BASED COMPOUND AS HERBICIDE” (Northwest A&F University, priority 2020, published 2022).

Columns and labels:
Format in all cases: in vivo
Amaranthus retroflexus [1] = test: Herbicidal activity test for indoor pre-emergence soil treatment; parameters: key: 1-9 levels; higher = more weed remaining vs blank control; conditions: 150 g a.i./ha, visual inspection 21 days after treatment
Summary of the method: (§1)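 Compounds were formulated as 10% emulsifiable concentrates and sprayed onto the soil 24 h after sowing, at 150 g(a.i.)/ha. Soil was sandy loam (≤2% organic matter), with seeds under 0.5–2.0 cm cover, per NY/T 1155.3-2006. Visual 1–9 ratings relative to blank control were made after 21 days.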

Digitaria sanguinalis [2] = test: as above; parameters: key: 1-9 levels; higher = more weed remaining vs blank control; conditions: 150 g a.i./ha, visual inspection 21 days after treatment
Summary of the method: as §1

Gramineae = test: Post-emergence herbicidal activity test in a paddy field; parameters: key: level scale; higher level = more weed left vs blank control; conditions: 150 g a.i./ha (penoxsulam control 250 g(a.i.)/h)
Summary of the method: (§2)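 Efficacy was visually estimated 15 and 30 days after spraying, grading weed coverage relative to an untreated neighbouring plot (level 2 = 0 to 2.5%, level 9 = 67.6 to 100%). Treatments were 150 g(a.i.)/ha from 10% emulsifiable concentrates applied at the 4-5 leaf rice stage, four repeats of 50 m^2 each.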

Broadleaf weed = test: as above; parameters: key: level scale; higher level = more weed left vs blank control; conditions: 150 g a.i./ha (penoxsulam control 250 g(a.i.)/h)
Summary of the method: as §2

Cyperaceae = test: as above; parameters: key: level scale; higher level = more weed left vs blank control; conditions: 150 g a.i./ha (penoxsulam control 250 g(a.i.)/h)
Summary of the method: as §2

Convolvulus arvensis = test: Field test for weed control in a corn field; conditions: 150 g a.i./ha, after treatment
Summary of the method: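 Post-emergence herbicidal activity on Convolvulus arvensis was scored in a corn field on a 1-9 scale, based on symptoms and damage severity. Each level corresponds to the weed remaining as a percentage of the blank control area. Sprays of 10% emulsifiable concentrate at 150 g(a.i.)/ha went on at the corn 2–5 leaf stage, with four replicates of 20 m^2 per treatment.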

nutgrass flatsedge = test: Field test for weed control in a corn field; conditions: 150 g a.i./ha, after treatment
Summary of the method: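 Herbicidal effect on nutgrass flatsedge was measured in a field planted with corn, using the GB/T 17980.42-2000 method. Emulsifiable concentrates (10%) in water were sprayed at 150 g(a.i.)/ha during the 2-leaf to 5-leaf corn stage, on 20 m^2 plots repeated 4 times. 25% mesotrione oil dispersion was the control agent. Activity was scored from 1 to 9 by weed remaining relative to blank control plots.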

Chenopodium album = test: Field test for weed control in a corn field; conditions: 150 g a.i./ha, after treatment
Summary of the method: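 Field weed-control testing in corn, run per GB/T 17980.42-2000, scored Chenopodium album on a 1-9 level scale, where each level matches a percentage range of weed remaining relative to the blank control area. Sprays of 10% emulsifiable concentrates in water delivered 150 g(a.i.)/ha at the corn 2-leaf to 5-leaf stage on 20 m^2 plots, four replicates each. Mesotrione 25% oil dispersion served as reference.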

Amaranthus retroflexus [3] = test: Field test for weed control in a corn field; conditions: 150 g a.i./ha, 30 days after treatment
Summary of the method: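 Post-emergence control of Amaranthus retroflexus was assessed in corn plots using the GB/T 17980.42-2000 method. Emulsifiable concentrates (10%) in water were applied by spraying at the 2- to 5-leaf crop stage on 20 m^2 plots, four replicates each, alongside a mesotrione 25% oil dispersion reference. Herbicidal activity was scored on 1-9 levels by weed amount relative to blank control areas.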

Solanum nigrum = test: Field test for weed control in a corn field; conditions: 150 g a.i./ha, 30 days after treatment
Summary of the method: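 In a corn field trial based on GB/T 17980.42-2000, 10% emulsifiable concentrates diluted in water were sprayed at 150 g(a.i.)/ha at the 2 to 5 leaf stage of corn. Each treatment used 20 m^2 plots and was repeated 4 times, with 25% mesotrione oil dispersion as the reference agent. Solanum nigrum damage was scored on a 1-9 scale against blank control plots.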

green bristlegrass [4] = test: Field test for weed control in a corn field; conditions: 150 g a.i./ha, after treatment
Summary of the method: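 Herbicidal activity against green bristlegrass was assessed in corn field plots of 20 m^2 per GB/T 17980.42-2000. Test agents, formulated as 10% emulsifiable concentrates, were applied in water at 150 g(a.i.)/ha at the corn 2 leaves to 5 leaves stage, repeated 4 times. A 25% mesotrione oil dispersion served as the control agent, and weed damage was rated on levels 1-9.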

Acalypha australis = test: Field test for weed control in a corn field; conditions: 150 g a.i./ha, after treatment
Summary of the method: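 Herbicidal activity against weeds was assessed in corn plots by the GB/T 17980.42-2000 method. Corn at the 2–5 leaf stage received water sprays of 10% emulsifiable concentrates at 150 g(a.i.)/ha, four repeats per treatment over 20 m^2. A 25% mesotrione oil dispersion was the reference. Damage symptoms and severity were rated on levels 1-9 relative to weeds in the blank control area.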

Portulaca oleracea = test: Field test for weed control in a corn field; conditions: 150 g a.i./ha, after treatment
Summary of the method: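 Post-emergence weed control was evaluated in a corn field by the GB/T 17980.42-2000 method. Emulsifiable concentrates (10%) in water were applied as sprays at 150 g(a.i.)/ha at the 2-5 leaf corn stage, in four replicate 20 m^2 plots. A 25% mesotrione oil dispersion served as control agent. Effects were graded 1-9 relative to weed remaining in blank control areas.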

goosegrass = test: Field test for weed control in a corn field; conditions: 150 g a.i./ha, after treatment
Summary of the method: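 In this field trial in corn, run per GB/T 17980.42-2000, test agents prepared as 10% emulsifiable concentrates were applied in water as sprays at 150 g(a.i.)/ha at the 2- to 5-leaf corn stage. Each treatment covered 20 m^2 and was repeated 4 times. Goosegrass control was scored 1-9 relative to weed remaining in blank control areas.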

Digitaria sanguinalis [5] = test: Field test for weed control in a corn field; conditions: 150 g a.i./ha, after treatment
Summary of the method: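 Field trial in a corn field following GB/T 17980.42-2000. Test compounds were formulated as 10% emulsifiable concentrates, diluted in water and sprayed post-emergence at 150 g(a.i.)/ha when corn had 2 to 5 leaves, with 4 replicates on 20 m^2 plots. Control of Digitaria sanguinalis was scored on a 1-9 scale based on weed damage relative to the untreated blank area.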

Barnyard grass [6] = test: Field test for weed control in a corn field; conditions: 150 g a.i./ha, 30 days after treatment
Summary of the method: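 Herbicidal activity against barnyard grass was assessed in corn field plots of 20 m^2, with four replicates per treatment. Compounds were applied as water-diluted 10% emulsifiable concentrates at 150 g(a.i.)/ha at the 2-5 leaf corn stage, with 25% mesotrione oil dispersion as the reference agent. Damage was scored on a 1-9 scale against untreated blank plots.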

Piemarker [7] = test: Herbicidal activity test for indoor post-emergence spraying on stems and leaves; parameters: key: grade level by weed remaining vs blank control, e.g. 5 = 10.1-15%; conditions: 150 g a.i./ha, visual inspection 21 days after treatment
Summary of the method: (§3)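 Weeds were grown in a greenhouse from seed and treated by foliar spraying after emergence, per the NY/T 1155.4-2006 method. Visual grading at 21 days: each level reflects the share of weed remaining versus the untreated blank control area.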

Amaranthus retroflexus [8] = test: as above; parameters: key: grade level by weed remaining vs blank control, e.g. 5 = 10.1-15%; conditions: 150 g a.i./ha, visual inspection 21 days after treatment
Summary of the method: as §3

green bristlegrass [9] = test: as above; parameters: key: grade level by weed remaining vs blank control, e.g. 5 = 10.1-15%; conditions: 150 g a.i./ha, visual inspection 21 days after treatment
Summary of the method: as §3

Humulus scandens [10] = test: as above; parameters: key: grade level by weed remaining vs blank control, e.g. 5 = 10.1-15%; conditions: 150 g a.i./ha, visual inspection 21 days after treatment
Summary of the method: as §3

Digitaria sanguinalis [11] = test: as above; parameters: key: grade level by weed remaining vs blank control, e.g. 5 = 10.1-15%; conditions: 150 g a.i./ha, visual inspection 21 days after treatment
Summary of the method: as §3

Barnyard grass [12] = test: as above; parameters: key: grade level by weed remaining vs blank control, e.g. 5 = 10.1-15%; conditions: 150 g a.i./ha, visual inspection 21 days after treatment
Summary of the method: as §3

Piemarker [13] = test: Herbicidal activity test for indoor pre-emergence soil treatment; parameters: key: level 1-9; higher = more weed remaining vs blank control; conditions: 150 g a.i./ha, visual inspection 21 days after treatment
Summary of the method: as §1

green bristlegrass [14] = test: as above; parameters: key: level 1-9; higher = more weed remaining vs blank control; conditions: 150 g a.i./ha, visual inspection 21 days after treatment
Summary of the method: as §1

Barnyard grass [15] = test: as above; parameters: key: level 1-9; higher = more weed remaining vs blank control; conditions: 150 g a.i./ha, visual inspection 21 days after treatment
Summary of the method: as §1

Humulus scandens [16] = test: as above; conditions: 150 g a.i./ha, visual inspection 21 days after treatment
Summary of the method: as §1

Row | Structure (SMILES) | Herbicidal Activity Amaranthus retroflexus (Amaranthus retroflexus [1]) | Herbicidal Activity Digitaria sanguinalis (Digitaria sanguinalis [2]) | Herbicidal activity 15 days after treatment Gramineae (Gramineae) | Herbicidal activity 30 days after treatment Gramineae (Gramineae) | Herbicidal activity 15 days after treatment Broadleaf weed (Broadleaf weed) | Herbicidal activity 30 days after treatment Broadleaf weed (Broadleaf weed) | Herbicidal activity 15 days after treatment Cyperaceae (Cyperaceae) | Herbicidal activity 30 days after treatment Cyperaceae (Cyperaceae) | Post-emergence weed control effect, Convolvulus arvensis (Convolvulus arvensis) | Post-emergence weed control effect, Nutgrass flatsedge (nutgrass flatsedge) | Post-emergence weed control effect, Chenopodium album (Chenopodium album) | Post-emergence weed control effect, Amaranthus retroflexus (Amaranthus retroflexus [3]) | Post-emergence weed control effect, Solanum nigrum (Solanum nigrum) | Post-emergence weed control effect, Green bristlegrass (green bristlegrass [4]) | Post-emergence weed control effect, Acalypha australis (Acalypha australis) | Post-emergence weed control effect, Portulaca oleracea (Portulaca oleracea) | Post-emergence weed control effect, Goose grass (goosegrass) | Post-emergence weed control effect, Digitaria sanguinalis (Digitaria sanguinalis [5]) | Post-emergence weed control effect, Barnyard grass (Barnyard grass [6]) | Herbicidal Activity Piemarker (Piemarker [7]) | further results
1 | COc1ncccc1C(=O)NCc1ccc(F)cc1 [Compound A94] | 1 | 1 | 2 (equivalent to 0 to 2.5% of the weed in the blank control area) | 2 (equivalent to 0 to 2.5% of the weed in the blank control area) | 1 | 1 | 1 | 2 (equivalent to 0 to 2.5% of the weed in the blank control area) | 2 (equivalent to 0 to 2.5% of the weed in the blank control area) | 3 (equivalent to 2.6 to 5% of the weed in the blank control area) | 1 | 1 | 2 (equivalent to 0 to 2.5% of the weed in the blank control area) | 2 (equivalent to 0 to 2.5% of the weed in the blank control area) | 2 (equivalent to 0 to 2.5% of the weed in the blank control area) | 1 | 1 | 2 (equivalent to 0 to 2.5% of the weed in the blank control area) | 1 | 1 | Herbicidal Activity Amaranthus retroflexus (Amaranthus retroflexus [8]): 1; Herbicidal Activity Green bristlegrass (green bristlegrass [9]): 1; Herbicidal Activity Humulus scandens (Humulus scandens [10]): 1; Herbicidal Activity Digitaria sanguinalis (Digitaria sanguinalis [11]): 1; Herbicidal Activity Barnyard grass (Barnyard grass [12]): 1; Herbicidal Activity Piemarker (Piemarker [13]): 1; Herbicidal Activity Green bristlegrass (green bristlegrass [14]): 1; Herbicidal Activity Barnyard grass (Barnyard grass [15]): 1; Herbicidal Activity Humulus scandens (Humulus scandens [16]): 2 (equivalent to 0 to 2.5% of the weed in the blank control area)
2 | COc1ccccc1C(=O)NCc1cc(F)cc(F)c1 [Compound A03, N-(3,5 difluorobenzyl)-2-methoxybenzamide] | 1 | 2 (equivalent to 0 to 2.5% of the weed in the blank control area) | 2 (equivalent to 0 to 2.5% of the weed in the blank control area) | 1 | 1 | 2 (equivalent to 0 to 2.5% of the weed in the blank control area) | 2 (equivalent to 0 to 2.5% of the weed in the blank control area) | 1 | 1 | 2 (equivalent to 0 to 2.5% of the weed in the blank control area) | 1 | 1 | 1 | 2 (equivalent to 0 to 2.5% of the weed in the blank control area) | 2 (equivalent to 0 to 2.5% of the weed in the blank control area) | 1 | 2 (equivalent to 0 to 2.5% of the weed in the blank control area) | 1 | 1 | 1 | Herbicidal Activity Amaranthus retroflexus (Amaranthus retroflexus [8]): 1; Herbicidal Activity Green bristlegrass (green bristlegrass [9]): 1; Herbicidal Activity Humulus scandens (Humulus scandens [10]): 1; Herbicidal Activity Digitaria sanguinalis (Digitaria sanguinalis [11]): 2 (equivalent to 0 to 2.5% of the weed in the blank control area); Herbicidal Activity Barnyard grass (Barnyard grass [12]): 1; Herbicidal Activity Piemarker (Piemarker [13]): 1; Herbicidal Activity Green bristlegrass (green bristlegrass [14]): 1; Herbicidal Activity Barnyard grass (Barnyard grass [15]): 1; Herbicidal Activity Humulus scandens (Humulus scandens [16]): 2 (equivalent to 0 to 2.5% of the weed in the blank control area)
